Assay results taken from publication PMC10746280, “Bacterial efflux pump modulators prevent bacterial growth in macrophages and under broth conditions that mimic the host environment” (mBio, 2023).

Assays:
RAW 264.7 macrophages = assay: SAFIRE macrophage assay: host toxicity (adherent macrophage count, morphology); assay type: cell-based
How it was run: (§1)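 RAW 264.7 macrophages infected with S. Typhimurium SL1344 sifB::gfp (MOI ~30), gentamicin 40 µg/mL, then compound from 2 h to 18 h post-infection. Confocal imaging with MitoTracker and DAPI; toxicity as adherent MitoTracker-positive macrophage count, bacterial load as GFP+ macrophage area.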

[1] = system: S. Typhimurium SL1344 (sifB::gfp) in RAW 264.7 macrophages; assay: SAFIRE macrophage assay: intracellular bacterial load (GFP signal within macrophages); assay type: cell-based, Salmonella enterica serotype Typhimurium
How it was run: as §1

[2] = 5 uM, 'Toxic' given instead of a score
[3] = 25 uM, 'Toxic' given instead of a score
[4] = 5 uM compound, n=1, DMSO solvent control = 100
[5] = 25 uM compound, n=1, DMSO solvent control = 100
[6] = 5 uM compound, n=1, DMSO solvent control = 98, rifampicin 2 μg/mL = 65
[7] = 25 uM compound, n=1, DMSO solvent control = 98, rifampicin 2 μg/mL = 65

SMILES | 5 uM Avg Cell # Score (RAW 264.7 macrophages; 5 uM) | 25 uM Avg Cell # Score (RAW 264.7 macrophages; 25 uM) | 5 uM Avg Antibacterial Score [1, 2] | 25 uM Avg Antibacterial Score [1, 3] | 5 uM Avg Cell # Score (RAW 264.7 macrophages; [4]) | 25 uM Avg Cell # Score (RAW 264.7 macrophages; [5]) | 5 uM Avg Antibacterial Score [1, 6] | 25 uM Avg Antibacterial Score [1, 7] | Avg Cell # Score (RAW 264.7 macrophages; control, rifampicin 2 μg/mL, DMSO = 100) | Avg Antibact Score ([1]; control, rifampicin 2 μg/mL, DMSO = 98)
OC(COc1cccc2ccccc12)CN1CCC(Nc2nccc(C(F)(F)F)n2)CC1 (stereo not drawn) [CU079] | 86 | 89 | 6.41 | Toxic | – | – | – | – | – | –
OC(COc1ccccc1Cl)CN1CCC(NC2CC2)C1 (stereo not drawn) [CU141] | 116 | 137 | 81 | 79 | – | – | – | – | – | –
OC(COc1ccc(Cl)c(Cl)c1)CN1CC2CC1CO2 (stereo not drawn) [CU225] | 114 | 101 | 98 | 73 | – | – | – | – | – | –
OC(COc1cc(Cl)cc(Cl)c1)CN1CCCC1 (stereo not drawn) [CU248] | – | – | – | – | 115 | 108 | 93 | 48 | – | –
NCC1CCN(CC(O)COc2cc(Cl)cc(Cl)c2)C1 (stereo not drawn) [CU209] | 143 | 94 | 41 | 14 | – | – | – | – | – | –
Cc1cccc(OCC(O)CN2CCC(Nc3nccc(C(F)(F)F)n3)C2)c1 (stereo not drawn) [CU114] | 99 | 146 | 96 | 5.57 | – | – | – | – | – | –
N#Cc1ccc(OCC(O)CN2CCC(Nc3ncccn3)CC2)cc1 (stereo not drawn) [CU050] | 102 | 113 | 101 | 95 | – | – | – | – | – | –
CCOC(=O)c1cccc(OCC(O)CN2CCC(Nc3nccc(C(F)(F)F)n3)C2)c1 (stereo not drawn) [CU090] | 91 | 48 | 70 | Toxic | – | – | – | – | – | –
NC1CCN(CC(O)COc2cccc(Cl)c2)CC1 (stereo not drawn) [CU188] | 110 | 111 | 33 | 25 | – | – | – | – | – | –
OC(COc1ccc(F)cc1F)CN1CCC(Nc2nccc(C(F)(F)F)n2)C1 (stereo not drawn) [CU098] | 89 | 88 | 92 | 12 | – | – | – | – | – | –
OC(COc1cc(Cl)cc(Cl)c1)CN1CCCCC1 (stereo not drawn) [CU247] | – | – | – | – | 118 | 111 | 93 | 50 | – | –
OC(COc1cc(Cl)cc(Cl)c1)CN1CCC(n2ccnc2)CC1 (stereo not drawn) [CU234] | – | – | – | – | 134 | 108 | 40 | 12 | – | –
N#Cc1ccc(OCC(O)CN2CCC(Nc3nccc(C(F)(F)F)n3)CC2)cc1 (stereo not drawn) [CU041] | 85 | 78 | 106 | 23 | – | – | – | – | – | –
OC(CNC1CCNCC1)COc1cccc(Cl)c1 (stereo not drawn) [CU199] | 105 | 115 | 83 | 55 | – | – | – | – | – | –
CO[C@H]1/C=C/O[C@@]2(C)Oc3c(C)c(O)c4c(O)c(c(/C=N/N5CCN(C)CC5)c(O)c4c3C2=O)NC(=O)/C(C)=C\C=C\[C@H](C)[C@H](O)[C@@H](C)[C@@H](O)[C@@H](C)[C@H](OC(C)=O)[C@@H]1C [Rifampicin] | – | – | – | – | – | – | – | – | 111 | 65
OC(COc1ccccc1)CN1CCC(Nc2ncccn2)CC1 (stereo not drawn) [CU043] | 69 | 107 | 106 | 81 | – | – | – | – | – | –
c1ccc2c(CN3CCNCC3)cccc2c1 [CU207] | 113 | 121 | 98 | 59 | – | – | – | – | – | –
N[C@H]1CC[C@@H](NCC(O)COc2ccc(Cl)c(Cl)c2)CC1 (stereo partly drawn) [CU245] | – | – | – | – | 122 | 103 | 66 | 16 | – | –

SMILES | 5 uM Avg Cell # Score (RAW 264.7 macrophages; 5 uM) | 25 uM Avg Cell # Score (RAW 264.7 macrophages; 25 uM) | 5 uM Avg Antibacterial Score [1, 2] | 25 uM Avg Antibacterial Score [1, 3] | 5 uM Avg Cell # Score (RAW 264.7 macrophages; [4]) | 25 uM Avg Cell # Score (RAW 264.7 macrophages; [5]) | 5 uM Avg Antibacterial Score [1, 6] | 25 uM Avg Antibacterial Score [1, 7] | Avg Cell # Score (RAW 264.7 macrophages; control, rifampicin 2 μg/mL, DMSO = 100) | Avg Antibact Score ([1]; control, rifampicin 2 μg/mL, DMSO = 98)
NCC1CCN(CC(O)COc2ccc(Cl)c(Cl)c2)CC1 (stereo not drawn) [CU205] | 131 | 13 | 12 | Toxic | – | – | – | – | – | –
Cc1nnc(CN(C)CC(O)COc2ccc(Cl)c(Cl)c2)o1 (stereo not drawn) [CU130] | 100 | 73 | 98 | 85 | – | – | – | – | – | –
OC(COc1cc(Cl)cc(Cl)c1)CN1CCC(Nc2nccc(C(F)(F)F)n2)CC1 (stereo not drawn) [CU101] | 71 | 73 | 9 | Toxic | – | – | – | – | – | –
OC(COc1cccc(Br)c1)CN1CCC(Nc2nccc(C(F)(F)F)n2)C1 (stereo not drawn) [CU113] | 92 | 49 | 68 | Toxic | – | – | – | – | – | –
OC(COc1cccc(C(F)(F)F)c1)CN1CCC(Nc2nccc(C(F)(F)F)n2)CC1 (stereo not drawn) [CU103] | 82 | 71 | 9 | Toxic | – | – | – | – | – | –
N#Cc1ccc(OCC(O)CN2CCC(Nc3nccc(C(F)(F)F)n3)C2)cc1 (stereo not drawn) [CU094] | 91 | 71 | 105 | 41 | – | – | – | – | – | –
OC(COc1cccc2[nH]ccc12)CN1CCC(Nc2nccc(C(F)(F)F)n2)CC1 (stereo not drawn) [CU116] | 99 | 94 | 90 | 6.41 | – | – | – | – | – | –
OC(COc1ccccc1F)CN1CCC(Nc2nccc(C(F)(F)F)n2)C1 (stereo not drawn) [CU139] | 95 | 73 | 99 | 28 | – | – | – | – | – | –
COc1ccc(OCC(O)CN2CCC(N)C2)cc1 (stereo not drawn) [CU152] | 116 | 142 | 103 | 91 | – | – | – | – | – | –
OC(COc1cccc(Cl)c1)CN1CCC(Nc2nccc(C(F)(F)F)n2)C1 (stereo not drawn) [CU085] | 92 | 33 | 47 | Toxic | – | – | – | – | – | –
OC(COc1cc(Cl)cc(Cl)c1)CN1CCN(Cc2cccc3ccccc23)CC1 (stereo not drawn) [CU213] | 41 | 15 | Toxic | Toxic | – | – | – | – | – | –
OC(CNC1CCNCC1)COc1ccc(Cl)c(Cl)c1 (stereo not drawn) [CU174] | 98 | 97 | 40 | 18 | – | – | – | – | – | –
NC1CCN(CC(O)COc2ccc(Cl)cc2)C1 (stereo not drawn) [CU165] | 105 | 109 | 63 | 32 | – | – | – | – | – | –
Cc1ccc(Sc2cccc3nc(N)nc(N)c23)cc1 [EPM43] | 93 | 67 | 81 | Toxic | – | – | – | – | – | –
CC(=O)Nc1ccc(OCC(O)CN2CCC(Nc3nccc(C(F)(F)F)n3)CC2)cc1 (stereo not drawn) [CU076] | 79 | 86 | 102 | 103 | – | – | – | – | – | –
OC(COc1ccc(Cl)cc1Br)CN1CCC(Nc2nccc(C(F)(F)F)n2)CC1 (stereo not drawn) [CU120] | 74 | 46 | 13 | Toxic | – | – | – | – | – | –
OC(COc1cccc(Br)c1)CN1CCC(Nc2nccc(C(F)(F)F)n2)CC1 (stereo not drawn) [CU107] | 90 | 41 | 10 | Toxic | – | – | – | – | – | –
